According to the NIST ThermoML archive (doi:10.1021/je0340248):
Numbers after ± are expanded uncertainties.

Conditions: 101.33 kPa, Liquid

CCCCOC(C)=O [butyl ethanoate]
mass density (298.15 K): 876.19 ± 0.94 kg/m3
speed of sound (298.15 K): 1190 ± 2 m/s
viscosity (298.15 K): 0.674 ± 0.012 mPa·s
mass density (303.15 K): 871.27 ± 0.96 kg/m3
mass density (308.15 K): 865.43 ± 0.98 kg/m3
speed of sound (308.15 K): 1150 ± 2 m/s
viscosity (308.15 K): 0.594 ± 0.011 mPa·s
mass density (313.15 K): 860.48 ± 1 kg/m3

OCCOCCO [diethylene glycol]
mass density (298.15 K): 1113.51 ± 0.32 kg/m3
speed of sound (298.15 K): 1580 ± 2 m/s
viscosity (298.15 K): 30.01 ± 0.42 mPa·s
mass density (303.15 K): 1109.56 ± 0.31 kg/m3
mass density (308.15 K): 1106.22 ± 0.3 kg/m3
speed of sound (308.15 K): 1550 ± 2 m/s
viscosity (308.15 K): 16.97 ± 0.33 mPa·s
mass density (313.15 K): 1103.02 ± 0.3 kg/m3

CCOC(C)=O [ethyl acetate]
mass density (298.15 K): 894.55 ± 0.88 kg/m3
speed of sound (298.15 K): 1138 ± 2 m/s
viscosity (298.15 K): 0.428 ± 0.008 mPa·s
mass density (303.15 K): 888.48 ± 0.9 kg/m3
mass density (308.15 K): 882.5 ± 0.92 kg/m3
speed of sound (308.15 K): 1095 ± 2 m/s
viscosity (308.15 K): 0.387 ± 0.008 mPa·s
mass density (313.15 K): 875.97 ± 0.94 kg/m3

COC(C)=O [methyl ethanoate]
mass density (298.15 K): 926.8 ± 0.78 kg/m3
speed of sound (298.15 K): 1150 ± 2 m/s
viscosity (298.15 K): 0.384 ± 0.008 mPa·s
mass density (303.15 K): 919.7 ± 0.8 kg/m3
mass density (308.15 K): 915.22 ± 0.81 kg/m3
speed of sound (308.15 K): 1103 ± 2 m/s
viscosity (308.15 K): 0.351 ± 0.007 mPa·s
mass density (313.15 K): 908.33 ± 0.84 kg/m3

OCCOCCOCCO [triethylene glycol]
mass density (298.15 K): 1119.59 ± 0.75 kg/m3
speed of sound (298.15 K): 1612 ± 2 m/s
viscosity (298.15 K): 34.4 ± 0.46 mPa·s
mass density (303.15 K): 1115.88 ± 0.69 kg/m3
mass density (308.15 K): 1111.96 ± 0.63 kg/m3
speed of sound (308.15 K): 1586 ± 2 m/s
viscosity (308.15 K): 21.31 ± 0.35 mPa·s
mass density (313.15 K): 1109.53 ± 0.6 kg/m3
